The values below come from US7405230B2, “Phosphodiesterase 4 inhibitors, including N-substituted aniline and diphenylamine analogs” (Memory Pharmaceuticals Corporation, priority 2002, dated 2008).

Assay [1] has as its system Rats. Put plainly: Passive avoidance in rats, an in vivo test for learning and memory (reversal of MK-801 amnesia). The arrangement: species or system rat (Male Spraque-Dawley (Harlan)). The settings on record: MK-801 0.1 mg/kg pretreatment, 24 hours after electric shock, compared to the vehicle (p<0.001). The method, then: The test was performed as previously described (Zhang, H.-T., Crissman, A. M., Dorairaj, N. R., Chandler, L. J., and O'Donnell, J. M., Neuropsychopharmacology, 2000, 23, 198-204.). The apparatus (Model E10-16SC, Coulbourn Instruments, Allentown, Pa.) consisted of a two-compartment chamber with an illuminated compartment connected to a darkened compartment by a guillotine door. The floor of the darkened compartment consisted of stainless steel rods through which an electric foot-shock could be delivered from a constant current source. All experimental groups were first habituated to the apparatus the day before the start of the experiment. […] The latency for entering the darkened compartment was recorded. […] Twenty-four hours later, the rat was administered 0.1 mg/kg MK-801 or saline, 30 minutes prior to the injection of saline or test compound (dosed from […], which was 30 minutes before the retention test started. The rat was again placed in the illuminated compartment with the guillotine door open. The latency for entering the darkened compartment was recorded for up to 180 seconds, at which time the trial was terminated.
(§1) All data were analyzed by analyses of variance (ANOVA); individual comparisons were made using Kewman-Keuls tests. […]

In assay [2] the test system is Rats. Put plainly: Radial arm maze task in rats, an in vivo test for learning and memory (reversal of MK-801 amnesia). The arrangement: species or system rat (male Spraque-Dawley (Harlan)). The settings on record: MK-801 0.1 mg/kg, i.p., compared to control (p<0.01). On the procedure:
The test was performed as previously described (Zhang, H.-T., Crissman, A. M., Dorairaj, N. R., Chandler, L. J., and O'Donnell, J. M., Neuropsychopharmacology, 2000, 23, 198-204.). Five days after initial housing, rats (male Spraque-Dawley (Harlan) weighing 250 to 350 g) were placed in the eight-arm radial maze (each arm was 60×10×12 cm high; the maze was elevated 70 cm above the floor) for acclimation for two days. Rats were then placed individually in the center of the maze for 5 minutes with food pellets placed close to the food wells, and then, the next day, in the wells at the end of the arms; 2 sessions a day were conducted. Next, four randomly selected arms were then baited with one pellet of food each. The rat was restricted to the center platform (26 cm in diameter) for 15 seconds and then allowed to move freely throughout the maze until it collected all pellets of food or 10 minutes passed, whichever came first. Four parameters were recorded: 1) working memory errors, i.e., entries into baited arms that had already been visited during the same trial; 2) reference memory errors, i.e., entries into unbaited arms; 3) total arm entries; and 4) the test duration (seconds), i.e., the time spent in the collection of all the pellets in the maze. […]
as §1

For the molecule `C[C@]12N[C@H](Cc3ccccc31)c1ccccc12` [MK-801], the “Latency for entering the darkened compartment” value in the assay on Rats [1] is “markedly reduced this latency”. Further, in the assay with Rats [2], the “Frequencies of working and reference memory errors” value is “increased the frequencies of both working and reference memory errors”.
